The values below come from patent US9815846B2 (Merck Sharp & Dohme Corp., priority 2014, dated 2017).

As a reminder, the IC50 is the concentration that inhibits the measured activity by half. Higher therefore signals a need for much substance.

The structures appear in SMILES notation.

This test deals with human TrkA receptor (Homo sapiens (Human), UniProt P04629). Nature of the test: DiscoverX PathHunter TrkA functional assay (NGF-stimulated U2OS cells). Format: cell-based. Particulars: U2OS cells expressing human TrkA-PK, Shc1-EA and p75NTR; compound 1 h, then NGF at ~80% of maximal response for 3 h; luminescence.
Chain of human TrkA receptor (P04629 33-796): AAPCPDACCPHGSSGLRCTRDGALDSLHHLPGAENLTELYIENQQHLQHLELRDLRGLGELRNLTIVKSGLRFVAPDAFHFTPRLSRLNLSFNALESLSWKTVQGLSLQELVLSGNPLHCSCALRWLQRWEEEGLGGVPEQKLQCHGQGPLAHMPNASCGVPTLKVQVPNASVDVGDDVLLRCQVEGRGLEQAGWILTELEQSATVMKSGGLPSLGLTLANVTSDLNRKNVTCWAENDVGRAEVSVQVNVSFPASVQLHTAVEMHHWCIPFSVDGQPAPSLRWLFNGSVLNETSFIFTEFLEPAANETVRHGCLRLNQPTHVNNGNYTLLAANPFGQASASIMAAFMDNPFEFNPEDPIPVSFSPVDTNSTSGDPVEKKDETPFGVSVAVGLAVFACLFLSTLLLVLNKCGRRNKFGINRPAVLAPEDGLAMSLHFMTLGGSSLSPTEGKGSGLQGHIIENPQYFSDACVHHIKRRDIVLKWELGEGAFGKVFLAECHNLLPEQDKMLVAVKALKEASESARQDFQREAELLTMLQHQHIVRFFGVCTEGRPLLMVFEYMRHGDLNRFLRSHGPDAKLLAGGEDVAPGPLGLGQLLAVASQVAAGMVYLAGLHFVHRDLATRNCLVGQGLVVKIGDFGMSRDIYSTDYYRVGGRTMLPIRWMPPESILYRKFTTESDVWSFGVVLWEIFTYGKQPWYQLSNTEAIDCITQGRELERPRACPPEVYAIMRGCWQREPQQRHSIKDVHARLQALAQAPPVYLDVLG
With `Cn1ccc(-c2cc(C(=O)Nc3cnc(Cc4nnc[nH]4)nc3-c3ccccc3)c(F)cc2C(F)(F)F)n1` [Example 129, N-(2-((4H-1,2,4-Triazol-3-yl)methyl)-4-phenylpyrimidin-5-yl)-2-fluoro-5-(1-methyl-1H-pyrazol-3-yl)-4-(trifluoromethyl)benzamide], the IC50 is 0.25 nM.

As to `Cn1ccc(-c2cc(C(=O)Nc3cnc(C(N)C(N)=O)nc3-c3ccccc3)c(F)cc2C(F)(F)F)n1` (centres unmarked) [Example 130, N-(2-(1,2-Diamino-2-oxoethyl)-4-phenylpyrimidin-5-yl)-2-fluoro-5-(1-methyl-1H-pyrazol-3-yl)-4-(trifluoromethyl)benzamide], half-maximal inhibition (IC50) required 4.6 nM. This IC50 is about 18-fold higher than that of the compound before.

For `Cn1ccc(-c2cc(C(=O)Nc3cnc(C4NC(=O)NC4=O)nc3-c3ccccc3)c(F)cc2C(F)(F)F)n1` (centres unmarked) [Example 131, N-(2-(2,5-Dioxoimidazolidin-4-yl)-4-phenylpyrimidin-5-yl)-2-fluoro-5-(1-methyl-1H-pyrazol-3-yl)-4-(trifluoromethyl)benzamide], the IC50 is 4.4 nM.

With `CC(=O)NCc1cccc(-c2nc(C)ncc2NC(=O)c2cc(-c3ccn(C)n3)c(C(F)(F)F)cc2F)c1` [Example 132, N-(4-(3-(Acetamidomethyl)phenyl)-2-methylpyrimidin-5-yl)-2-fluoro-5-(1-methyl-1H-pyrazol-3-yl)-4-(trifluoromethyl)benzamide], the IC50 is 16 nM.

In turn, `CC(=O)Nc1cccc(-c2nc(C)ncc2NC(=O)c2cc(-c3ccn(C)n3)c(C(F)(F)F)cc2F)c1` [Example 133, N-(4-(3-acetamidophenyl)-2-methylpyrimidin-5-yl)-2-fluoro-5-(1-methyl-1H-pyrazol-3-yl)-4-(trifluoromethyl)benzamide] gave an IC50 of 4.6 nM.

`Cc1ncc(NC(=O)c2cc(-c3ccn(C)n3)c(C(F)(F)F)cc2F)c(-c2ccccc2CCN)n1` [Example 134, N-(4-(2-(2-aminoethyl)phenyl)-2-methylpyrimidin-5-yl)-2-fluoro-5-(1-methyl-1H-pyrazol-3-yl)-4-(trifluoromethyl)benzamide] came in with an IC50 of 7 nM.

The compound `Cc1ncc(NC(=O)c2cc(-c3ccn(C)n3)c(C(F)(F)F)cc2F)c(-c2ccccc2CCN(C)C)n1` [Example 135, N-(4-(2-(2-(Dimethylamino)ethyl)phenyl)-2-methylpyrimidin-5-yl)-2-fluoro-5-(1-methyl-1H-pyrazol-3-yl)-4-(trifluoromethyl)benzamide] gave an IC50 of 0.57 nM.

`Cc1ncc(NC(=O)c2cc(-c3ccn(C)n3)c(C(F)(F)F)cc2F)c(-c2ccccc2CO)n1` [Example 136, 2-Fluoro-N-(4-(2-(hydroxymethyl)phenyl)-2-methylpyrimidin-5-yl)-5-(1-methyl-1H-pyrazol-3-yl)-4-(trifluoromethyl)benzamide] came in with an IC50 of 4.4 nM.

With `O=C(Nc1cc(-c2csc(C3CC3)n2)cnc1N1CCC[C@@H]1CO)c1cc(-c2ncccn2)c(C(F)(F)F)cc1F` [Example 137, (R)—N-(5-(2-Cyclopropylthiazol-4-yl)-2-(2-(hydroxymethyl)pyrrolidin-1-yl)pyridin-3-yl)-2-fluoro-5-(pyrimidin-2-yl)-4-(trifluoromethyl)benzamide], inhibition was half-maximal at 2.9 nM (IC50).

`Cn1ccc(-c2cnc(N3CCC[C@@H]3CO)c(NC(=O)c3cc(-c4ncccn4)c(C(F)(F)F)cc3F)c2)n1` [Example 138, (R)-2-fluoro-N-(2-(2-(hydroxymethyl)pyrrolidin-1-yl)-5-(1-methyl-1H-pyrazol-3-yl)pyridin-3-yl)-5-(pyrimidin-2-yl)-4-(trifluoromethyl)benzamide]: the IC50 was 27 nM.

Take `O=C(Nc1cc2c(nc1-c1ccccc1)CCNC2=O)c1cc(-c2ncccn2)c(C(F)(F)F)cc1F` [Example 139, 2-Fluoro-N-(5-oxo-2-phenyl-5,6,7,8-tetrahydro-1,6-naphthyridin-3-yl)-5-(pyrimidin-2-yl)-4-(trifluoromethyl)benzamide]: half-maximal inhibition (IC50) was put at 1.4 nM. This IC50 is about 19-fold lower than that of the compound before.
